The values below come from EP3498714B1 (priority 2017, dated 2019).

In brackets after ≈: the same amount, converted by molar mass. Bounds are passed on as bounds.

The subject of one assay is S. aureus Newman. In words: MIC in RPMI-1640 macrophage growth medium. Particulars: Staphylococcus aureus, NEWMAN; RPMI-1640 macrophage growth medium supplemented with 0.5% (v/v) FBS. The assay is classed as cell-based. As to the method:
Determination of intracellular efficiency. For infection experiments, cells were seeded in 24-well plates in RPMI-1640 supplemented with 10% FBS and 150 nM phorbol 12-myristate 13-acetate (PMA) at a concentration of 10^5 cells/well. After 2 d, the cells were differentiated into macrophages and reached a cell density of ca. 2 x 10^5 cells/well. The medium was then removed and the cells were washed twice with PBS. An inoculum of ca. 2×10^6 CFU (colony-forming units) of S. aureus Newman in log phase (multiplicity of infection, MOI=10) was added to each well in RPMI/10% FBS and the plates were incubated at 37 °C and 5% CO2 in a water vapor-saturated atmosphere. The inoculum was checked by serial dilution and plating on CASO agar (1.5% peptone casein, 0.5% peptone soymeal, 0.5% NaCl, 1.5% agar, pH 7.3). After 2 h, the infected cells were washed three times with PBS (phosphate-buffered saline; pH 7.4) and incubated with fresh growth medium containing 10 µg/mL lysostaphin (≥500 U/mg) for 30 min in order to kill remaining extracellular bacteria. The initial load (Control t0) was checked by recovery of intracellular bacteria and plating on CASO agar. After three times washing with PBS the test compounds were added in RPMI-1640/0.5% FBS at the given concentrations for 18 h. After repeated washing with PBS the intracellular bacteria were recovered by adding ice-cooled water for 10 min and the bacterial suspensions were further diluted in 0.9% (w/v) NaCl prior to plating on CASO agar. The plates were incubated overnight at 37 °C and colonies were counted. The MIC values on S. aureus Newman in RPMI-1640 macrophage growth medium supplemented with 0.5% (v/v) fetal bovine serum (FBS) for neosorangicin A (2), sorangicin A (1) and the reference antibiotic rifampicin (RIF) were 0.01, 0.13 and 0.01 µg/mL, respectively. Human THP-1 macrophages were infected with S. aureus at an MOI (multiplicity of infection) of 10. After killing of extracellular bacteria, the cells were treated for 18 h with the antibiotics at their respective 1x and 8x MIC. […]

The test system of assay [1] is Escherichia coli DSM-1116 + 3 µg/ml PMBN. Nature of the assay: Microbroth dilution assay (MIC) with PMBN. The assay is classed as cell-based. Particulars: DSM1116, 18-24 h, read-out: Minimum inhibitory concentrations (MIC). As to the method:
(§1) Bacterial strains. All microorganisms were obtained from the German Collection of Microorganisms and Cell Cultures (Deutsche Sammlung für Mikroorganismen und Zellkulturen, DSMZ) and the American Type Culture Collection (ATCC) or were part of our internal strain collection.
(§2) Antimicrobial Testing. Sorangicin A (1) and Neosorangicin A (2) were tested in microbroth dilution assays on a panel of Gram-positive and Gram-negative bacteria. Overnight cultures were prepared from cryopreserved cultures and were diluted to achieve a final inoculum of 10^4-10^5 cfu/mL. Serial dilutions of compounds in DMSO were prepared in sterile 96-well plates in the test medium (cation-adjusted Müller-Hinton broth; supplemented with 2% (w/v) NaCl for S. aureus and 2.5% (v/v) lysed horse blood for Enterococcus and Streptococcus spp.) The cell suspension was added and microorganisms were grown for 18-24 h at either 30°C or 37°C. Streptococci and enterococci were grown under microaerophilic conditions. Growth inhibition was assessed by visual inspection and given MIC values are the lowest concentration of antibiotic at which there was no visible growth. Table 2. Antimicrobial activity; Minimum inhibitory concentrations (MIC, µg/mL) of neosorangicin A (2), sorangicin A (1), and a reference antibiotic (RIF; Rifampicin) on selected Gram-positive (I) and Gram-negative (II) species.
However, similar to 1, neosorangicin A (2) was not active on a rifampicin-resistant (Rif^R) derivative of S. aureus Newman, which confirms overlapping binding sites on RNA polymerase. […] In addition, the MIC values of 2 on efflux-deficient E. coli mutants (TolC as part of the AcrAB multidrug efflux system) were decreased.
(In broth dilution the organism is exposed to a series of concentrations in liquid medium.)

The target in another assay is T1, S. aureus RNA polymerase (Staphylococcus aureus, UniProt P47768).
T1 construct: purchased ProFoldin, MA
T1 sequence (P47768 whole entry): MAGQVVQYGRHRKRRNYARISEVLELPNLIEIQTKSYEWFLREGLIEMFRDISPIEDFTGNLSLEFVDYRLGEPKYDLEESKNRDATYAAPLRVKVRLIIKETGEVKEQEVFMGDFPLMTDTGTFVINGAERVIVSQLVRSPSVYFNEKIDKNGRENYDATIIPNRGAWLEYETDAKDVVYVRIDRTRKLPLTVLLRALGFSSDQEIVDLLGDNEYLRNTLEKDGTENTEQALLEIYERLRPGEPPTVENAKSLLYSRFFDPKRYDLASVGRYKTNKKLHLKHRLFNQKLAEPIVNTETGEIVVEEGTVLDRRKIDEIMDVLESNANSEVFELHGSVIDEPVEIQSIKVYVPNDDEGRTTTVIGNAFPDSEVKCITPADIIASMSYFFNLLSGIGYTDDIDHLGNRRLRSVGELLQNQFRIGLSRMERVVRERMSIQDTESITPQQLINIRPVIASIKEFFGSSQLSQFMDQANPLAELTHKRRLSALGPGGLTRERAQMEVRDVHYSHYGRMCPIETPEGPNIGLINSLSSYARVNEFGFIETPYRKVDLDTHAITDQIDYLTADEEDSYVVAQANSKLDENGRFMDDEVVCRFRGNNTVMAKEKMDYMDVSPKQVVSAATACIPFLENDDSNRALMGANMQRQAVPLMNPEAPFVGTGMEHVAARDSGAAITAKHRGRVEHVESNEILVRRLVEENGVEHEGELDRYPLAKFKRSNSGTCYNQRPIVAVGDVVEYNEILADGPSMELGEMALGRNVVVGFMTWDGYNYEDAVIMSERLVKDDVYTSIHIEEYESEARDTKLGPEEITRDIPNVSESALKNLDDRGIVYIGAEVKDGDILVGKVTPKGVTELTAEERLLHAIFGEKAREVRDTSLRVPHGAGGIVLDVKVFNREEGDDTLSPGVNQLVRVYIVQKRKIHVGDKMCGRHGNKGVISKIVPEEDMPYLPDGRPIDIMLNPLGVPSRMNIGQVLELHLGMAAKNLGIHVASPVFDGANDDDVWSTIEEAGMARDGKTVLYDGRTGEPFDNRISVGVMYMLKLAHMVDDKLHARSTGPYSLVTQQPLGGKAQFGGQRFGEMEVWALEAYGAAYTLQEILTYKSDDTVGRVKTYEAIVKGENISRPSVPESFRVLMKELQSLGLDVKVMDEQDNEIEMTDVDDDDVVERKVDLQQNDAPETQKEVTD
Nature of the assay: RNA polymerase inhibition assay (ProFoldin kit). The class given is biochemical. How it is done: The inhibition of S. aureus RNA polymerase by Sorangicin derivatives 1 and 2 was tested in vitro (bacterial RNA Polymerase Assay Kit; ProFoldin, MA). The samples were prepared and analyzed according to the manufacturer's protocol with slight modifications. In brief, serial dilutions (concentration range: 0.1 nM - 10 µM) of rifampicin, sorangicin A (1) and neosorangicin A (2) in black 384-well plates (low-volume, non-binding surface; Corning) were incubated for 1 h at room temperature with 25 nM RNA polymerase from S. aureus in assay buffer (42.5 mM HEPES, 42.5 mM NH4Cl, 2 mM DTT, 4 mM MgCl2, 0.005 % (v/v) Tween-20; pH 7.5) containing 0.5 mM NTPs and 1x DNA template. The reaction was monitored by incubation with a fluorescent probe for 5 min and measurement of the fluorescence intensity at 535 nm after excitation at 485 nm (Tecan Infinite M200PRO). Half-inhibitory concentrations (IC50) were determined in two independent experiments by sigmoidal curve fitting and given values are IC50 ± SD.

Assay [2] has as its system Staphylococcus aureus DSM-346. Nature of the assay: Microbroth dilution assay (MIC). The assay is classed as cell-based. As to conditions: DSM346, 18-24 h, 2% NaCl, read-out: Minimum inhibitory concentrations (MIC). How it is done:
as §1, §2

Assay [3] relates to Staphylococcus aureus ATCC29213. In words: Microbroth dilution assay (MIC). As to conditions: 18-24 h, 2% NaCl, read-out: Minimum inhibitory concentrations (MIC). The assay is classed as cell-based. How it is done: as §1, §2
The test system of assay [4] is Pseudomonas aeruginosa DSM-1128. Nature of the assay: Microbroth dilution assay (MIC). The class given is cell-based. As to conditions: DSM1128, 18-24 h, read-out: Minimum inhibitory concentrations (MIC). How it is done:
as §1, §2

In assay [5] the test system is Enterococcus faecium DSM-20477. Nature of the assay: Microbroth dilution assay (MIC). As to conditions: DSM20477, 18-24 h, 2.5% lysed horse blood, microaerophilic, read-out: Minimum inhibitory concentrations (MIC). The assay is classed as cell-based. As to the method:
as §1, §2

Assay [6] has as its system Staphylococcus aureus Newman (Rif^R). In words: Microbroth dilution assay (MIC). The class given is cell-based. As to conditions: Staphylococcus aureus, NEWMAN, read-out: Minimum inhibitory concentrations (MIC). How it is done: as §1, §2
Assay [7] has as its system Escherichia coli DSM-1116. In words: Microbroth dilution assay (MIC). Particulars: DSM1116, 18-24 h, read-out: Minimum inhibitory concentrations (MIC). The assay is classed as cell-based. As to the method: as §1, §2
The subject of assay [8] is Escherichia coli DSM-26863 (tolC3). In words: Microbroth dilution assay (MIC). Particulars: Escherichia coli, DSM26863, read-out: Minimum inhibitory concentrations (MIC). The class given is cell-based. How it is done:
as §1, §2

Assay [9] has as its system Staphylococcus aureus Newman. Nature of the assay: Microbroth dilution assay (MIC). The assay is classed as cell-based. Particulars: 18-24 h, 2% NaCl, read-out: Minimum inhibitory concentrations (MIC). As to the method:
as §1, §2

Assay [10] deals with Escherichia coli (TolC-deficient). In words: Microbroth dilution assay (MIC). The class given is cell-based. Particulars: Escherichia coli, read-out: Minimum inhibitory concentrations (MIC). As to the method: as §1, §2
Assay [11] has as its system Klebsiella pneumoniae DSM-30104. Nature of the assay: Microbroth dilution assay (MIC). The assay is classed as cell-based. Particulars: DSM30104, 18-24 h, read-out: Minimum inhibitory concentrations (MIC). As to the method:
as §1, §2

For assay [12], the system named is Streptococcus pneumoniae DSM-11865. Nature of the assay: Microbroth dilution assay (MIC). The class given is cell-based. Particulars: DSM11865, 18-24 h, 2.5% lysed horse blood, microaerophilic, read-out: Minimum inhibitory concentrations (MIC). As to the method: as §1, §2
The subject of assay [13] is Enterococcus faecalis DSM-20478. In words: Microbroth dilution assay (MIC). The class given is cell-based. Particulars: DSM20478, 18-24 h, 2.5% lysed horse blood, microaerophilic, read-out: Minimum inhibitory concentrations (MIC). As to the method: as §1, §2
Assay [14] has as its system Acinetobacter baumannii DSM-30008. In words: Microbroth dilution assay (MIC). The assay is classed as cell-based. Particulars: DSM30008, 18-24 h, read-out: Minimum inhibitory concentrations (MIC). How it is done: as §1, §2

As for `CO[C@H]1/C=C/O[C@@]2(C)Oc3c(C)c(O)c4c(O)c(c(/C=N/N5CCN(C)CC5)c(O)c4c3C2=O)NC(=O)/C(C)=C\C=C\[C@H](C)[C@H](O)[C@@H](C)[C@@H](O)[C@@H](C)[C@H](OC(C)=O)[C@@H]1C` [RIF, Rifampicin], the MIC against S. aureus Newman was 0.01 µg/mL (≈ 0.0122 µM); in assay [1] it was 0.4 µg/mL (≈ 0.486 µM); in assay [2], 0.006 µg/mL (≈ 0.00729 µM); in [3], 0.01 µg/mL (≈ 0.0122 µM); in assay [4] it was greater than 6.4 µg/mL; in assay [5] it was greater than 6.4 µg/mL. The MIC was greater than 6.4 µg/mL in assay [6]; 6.4 µg/mL (≈ 7.78 µM) in assay [7]; 6.4 µg/mL (≈ 7.78 µM) in assay [8]; 0.01 µg/mL (≈ 0.0122 µM) in [9]; 6.4 µg/mL (≈ 7.78 µM) in assay [10]; 6.4 µg/mL (≈ 7.78 µM) in assay [11]. Further, the MIC in assay [12] came out at 0.1 µg/mL (≈ 0.122 µM); in assay [13], 6.4 µg/mL (≈ 7.78 µM); in assay [14], 1.6 µg/mL (≈ 1.94 µM). Moreover, the concentration for half-maximal inhibition (IC50) (as a rule, the midpoint of a concentration-inhibition curve) against S. aureus RNA polymerase was found to be 30 ± 20 nM.
